Where two headings read alike, the source gives them in different places.
Columns and labels:
CYP3A4 = CYP3A4 (Homo sapiens, UniProt P08684); assay: CYP3A4 inhibition assay; format: biochemical; details: for CYP3A4 inhibition compared in words: versus dillapiol (14, 15: versus 13); for increased CYP3A4 inhibition relative to the methyl ester 4a (factor): esters of primary alcohol 2; for times more potent than dillapiol as CYP3A4 inhibitor: dillapiol = 1
Colorado potato beetle = details: in vivo bioassays; cited from earlier work

Chain of CYP3A4 (P08684 whole entry): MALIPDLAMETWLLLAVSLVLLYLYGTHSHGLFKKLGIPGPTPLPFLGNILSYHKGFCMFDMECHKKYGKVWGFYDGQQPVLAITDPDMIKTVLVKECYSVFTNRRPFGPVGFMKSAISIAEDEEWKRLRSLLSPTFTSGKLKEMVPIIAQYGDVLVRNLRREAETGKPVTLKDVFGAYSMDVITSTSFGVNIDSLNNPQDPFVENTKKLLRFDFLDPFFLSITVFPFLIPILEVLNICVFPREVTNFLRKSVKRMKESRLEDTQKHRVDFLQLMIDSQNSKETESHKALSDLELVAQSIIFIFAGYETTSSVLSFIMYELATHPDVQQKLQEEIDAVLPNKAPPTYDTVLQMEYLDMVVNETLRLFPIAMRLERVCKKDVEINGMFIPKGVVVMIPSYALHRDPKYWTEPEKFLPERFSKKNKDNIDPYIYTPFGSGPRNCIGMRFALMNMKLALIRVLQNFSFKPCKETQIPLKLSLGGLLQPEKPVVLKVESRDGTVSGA

Question: With `COc1c(CC(C)O)cc2c(c1OC)OCO2` (centres unmarked) [Compound 3] as the compound, how does the “CYP3A4 inhibition compared in words” value (CYP3A4) read?
Answer: less potent than dillapiol

Question: For `COc1c(CCCOC(C)=O)cc2c(c1OC)OCO2` [Compound 4a], which “insecticide synergism of pyrethrum” value (Colorado potato beetle) is on record?
Answer: no insecticide synergism

Question: And the “CYP3A4 inhibition compared in words” value (CYP3A4)?
Answer: essentially the same inhibitory effect as dillapiol

Question: With `CCCCCC(=O)OCCCc1cc2c(c(OC)c1OC)OCO2` [Compound 4d] as the compound, how does the “increased CYP3A4 inhibition relative to the methyl ester 4a (factor)” value (CYP3A4) read?
Answer: 2.8

Question: What about the IC50 (CYP3A4; human, recombinant CYP3A4 (BD Gentest), probe dibenzyl fluorescein (DBF)) of the same compound?
Answer: 3.3 µM

Question: With `COc1c(CCCOC(=O)c2ccccc2)cc2c(c1OC)OCO2` [Compound 4g] as the compound, how does the “insecticide synergism of pyrethrum” value (Colorado potato beetle) read?
Answer: no insecticide synergism

Question: For `COc1c(CCCOC(=O)c2ccccc2Cl)cc2c(c1OC)OCO2` [Compound 4h], which IC50 (CYP3A4) is on record?
Answer: 1.3 µM

Question: What does the source list for `COc1c(CCCOC(=O)c2ccc(Cl)cc2)cc2c(c1OC)OCO2` [Compound 4i]?
Answer: IC50 (CYP3A4): 1.6 µM; increased CYP3A4 inhibition relative to the methyl ester 4a (factor) (CYP3A4): greater than 6

Question: For `COc1c(CCCOC(=O)c2ccc(Cl)cc2Cl)cc2c(c1OC)OCO2` [Compound 4j], which “increased CYP3A4 inhibition relative to the methyl ester 4a (factor)” value (CYP3A4) is on record?
Answer: greater than 6

Question: Which IC50 (CYP3A4) does the source give for `COc1c(CCCOC(=O)C=Cc2ccccc2)cc2c(c1OC)OCO2` [Compound 4l] here?
Answer: 2.4 µM

Question: With `COc1c(CCCOC(=O)C(c2ccccc2)c2ccccc2)cc2c(c1OC)OCO2` [Compound 4n] as the compound, how does the “increased CYP3A4 inhibition by a factor, benzhydryl versus benzyl group (4m)” value (CYP3A4) read?
Answer: 5

Question: For `COc1c(CC(C)OC(C)=O)cc2c(c1OC)OCO2` (centres unmarked) [Compound 5a], which IC50 (CYP3A4) is on record?
Answer: > 20 µM

Question: For `COc1c(CC(C)OC(=O)c2ccccc2)cc2c(c1OC)OCO2` (centres unmarked) [Compound 5g], which IC50 (CYP3A4) is on record?
Answer: 3.5 µM

Question: With `C=CCc1cc2c(cc1OC)OCO2` [Compound 8b] as the compound, how does the “insecticide synergism of pyrethrum” value (Colorado potato beetle) read?
Answer: increased in vivo synergism relative to dillapiol

Question: For `C=CCc1cc2c(cc1OCc1ccccc1Cl)OCO2` [Compound 8f], which “times more potent than dillapiol as CYP3A4 inhibitor” value (CYP3A4) is on record?
Answer: 86 times

Question: For `C=CCc1cc2c(cc1OCc1ccccc1OC)OCO2` [Compound 8g], which “times more potent than dillapiol as CYP3A4 inhibitor” value (CYP3A4) is on record?
Answer: 0.9 times

Question: For `COc1cc2c(cc1CCCOC(=O)C=Cc1ccccc1)OCO2` [Compound 11d], which IC50 (CYP3A4) is on record?
Answer: 17.2 µM

Question: Which IC50 (CYP3A4) does the source give for `O=C(C=Cc1ccccc1)OCCCc1cc2c(cc1OCc1ccccc1)OCO2` [Compound 11e] here?
Answer: 4.7 µM

Question: With `O=C(OCCCc1cc2c(cc1OCc1ccccc1)OCO2)C(c1ccccc1)c1ccccc1` [Compound 11g] as the compound, how does the IC50 (CYP3A4) read?
Answer: 1 µM

From publication PMC6648837 (ACS Omega, 2019)
